Laboratory results from ChEMBL document CHEMBL1201862, “PubChem BioAssay data set” (2004).
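These data come from cells grown in 96-well plates and exposed to compound for 48 hours at five concentrations. GI50: concentration for 50% inhibition of growth.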 Calls of active or inactive are those of the source. Rule as the data show it: active = GI50 up to about 1.1 µM and inactive = higher.

Columns and labels:
Experiment in all cases: NCI anticancer screen, dose series, 48 h
ACHN = tested on: ACHN
CAKI-1 = tested on: CAKI-1
CCRF-CEM = tested on: CCRF-CEM
HCT-116 = tested on: HCT-116
IGROV-1 = tested on: IGROV-1
K562 = tested on: K562
KM12 = tested on: KM12
LOX IMVI = tested on: LOX IMVI
MCF7 = tested on: MCF7
MDA-N = tested on: MDA-N
NCI-H23 = tested on: NCI-H23
SF-539 = tested on: SF-539
SK-MEL-2 = tested on: SK-MEL-2
SK-OV-3 = tested on: SK-OV-3
SNB-19 = tested on: SNB-19
UACC-62 = tested on: UACC-62
SK-MEL-28 = tested on: SK-MEL-28
A498 = tested on: A498
Malme-3M = tested on: Malme-3M
HL-60 = tested on: HL-60

SMILES | GI50 (ACHN) | GI50 (CAKI-1) | GI50 (CCRF-CEM) | GI50 (HCT-116) | GI50 (IGROV-1) | GI50 (K562) | GI50 (KM12) | GI50 (LOX IMVI) | GI50 (MCF7) | GI50 (MDA-N) | GI50 (NCI-H23) | GI50 (SF-539) | GI50 (SK-MEL-2) | GI50 (SK-OV-3) | GI50 (SNB-19) | GI50 (UACC-62) | GI50 (SK-MEL-28) | GI50 (A498) | GI50 (Malme-3M) | GI50 (HL-60)
COc1cccc(C2CC(=O)c3cc(N4CCCC4)ccc3N2)c1 (configuration not stated) | 0.0832 µM (active) | 0.0561 µM (active) | 0.0407 µM (active) | 0.0251 µM (active) | 0.045 µM (active) | 0.0237 µM (active) | 0.0861 µM (active) | 0.0516 µM (active) | 0.398 µM (active) | 0.00269 µM (active) | 0.0265 µM (active) | 0.0272 µM (active) | 0.0296 µM (active) | 0.043 µM (active) | 0.0296 µM (active) | 0.0449 µM (active) |  |  |  | 
CCn1ncc2c1nc(-c1ccccc1)c[n+]2[O-] | > 100 µM (inactive) |  | > 100 µM (inactive) | 63.7 µM (inactive) | > 100 µM (inactive) | > 100 µM (inactive) | > 100 µM (inactive) | 7.01 µM (inactive) | 46 µM (inactive) |  | > 100 µM (inactive) | > 100 µM (inactive) | > 100 µM (inactive) |  | > 100 µM (inactive) | 6.15 µM (inactive) | > 100 µM (inactive) |  |  | 
CC(CCc1nc2ccccc2s1)(c1ccc(O)cc1)c1ccc(O)cc1 | 18.3 µM (inactive) | 20.6 µM (inactive) |  | 18.2 µM (inactive) | 14.2 µM (inactive) | 15.4 µM (inactive) | 15.4 µM (inactive) | 16 µM (inactive) |  | 16.5 µM (inactive) | 17.6 µM (inactive) |  | 17 µM (inactive) |  | 17.5 µM (inactive) | 15.9 µM (inactive) | 19 µM (inactive) | 20.7 µM (inactive) | 16.5 µM (inactive) | 
Cc1ccc(S(=O)(=O)c2ccc([N+](=O)[O-])o2)cc1 | 1.59 µM (inactive) | 0.597 µM (active) | 0.242 µM (active) | 1.64 µM (inactive) | 1.55 µM (inactive) | 1.23 µM (inactive) | 4.43 µM (inactive) | 1.14 µM (inactive) | 2.55 µM (inactive) |  | 3.52 µM (inactive) | 1.91 µM (inactive) | 9.89 µM (inactive) | 18.7 µM (inactive) | 20.1 µM (inactive) | 2.32 µM (inactive) | 1.98 µM (inactive) | 17 µM (inactive) | 1.08 µM (active) | 
C(/Cc1ccc2c(c1)OCO2)=N\N=C1NCCCCN1 | > 100 µM (inactive) |  | 82.2 µM (inactive) | 64.7 µM (inactive) | 68.9 µM (inactive) | 41.9 µM (inactive) | 88.3 µM (inactive) | 55.5 µM (inactive) | 88.3 µM (inactive) |  | > 100 µM (inactive) | > 100 µM (inactive) | > 100 µM (inactive) | 27.9 µM (inactive) | > 100 µM (inactive) | > 100 µM (inactive) | > 100 µM (inactive) | 24.8 µM (inactive) | > 100 µM (inactive) | > 100 µM (inactive)
CC(=O)N(C(C)=O)n1c(-c2ccccc2)n[nH]c1=O | > 100 µM (inactive) |  | > 100 µM (inactive) | > 100 µM (inactive) | > 100 µM (inactive) | > 100 µM (inactive) | > 100 µM (inactive) | > 100 µM (inactive) | > 100 µM (inactive) | > 100 µM (inactive) | > 100 µM (inactive) | > 100 µM (inactive) | > 100 µM (inactive) | > 100 µM (inactive) | > 100 µM (inactive) | > 100 µM (inactive) | > 100 µM (inactive) |  |  | 
O=c1[nH]c(-c2ccc(-c3nc4cc([N+](=O)[O-])ccc4c(=O)[nH]3)cc2)nc2cc([N+](=O)[O-])ccc12 | > 100 µM (inactive) | > 100 µM (inactive) | > 100 µM (inactive) | > 100 µM (inactive) | > 100 µM (inactive) | > 100 µM (inactive) | > 100 µM (inactive) | > 100 µM (inactive) |  |  | > 100 µM (inactive) | > 100 µM (inactive) | > 100 µM (inactive) | > 100 µM (inactive) | > 100 µM (inactive) | > 100 µM (inactive) | > 100 µM (inactive) | 16 µM (inactive) | > 100 µM (inactive) | > 100 µM (inactive)
CC(=O)Nc1ccc(-c2nc3ccccc3s2)cc1 | 32.4 µM (inactive) | 22.8 µM (inactive) | 64.1 µM (inactive) | 86.7 µM (inactive) | 47.6 µM (inactive) | 1.96 µM (inactive) | 35.3 µM (inactive) | 36.9 µM (inactive) | 67.5 µM (inactive) |  | 52.1 µM (inactive) | 26.2 µM (inactive) | 57.4 µM (inactive) | 21.2 µM (inactive) | 33.4 µM (inactive) | 66.7 µM (inactive) | 71.9 µM (inactive) | 13.4 µM (inactive) |  | 81.7 µM (inactive)
Cc1c(Cc2ccccc2)n(C(C)OCCN(OC(=O)Oc2ccccc2)C(=O)Oc2ccccc2)c(=O)[nH]c1=O (configuration not stated) | 26.3 µM (inactive) | 18.7 µM (inactive) | 12.4 µM (inactive) | 20.5 µM (inactive) | 14.9 µM (inactive) | 26.9 µM (inactive) | 15.8 µM (inactive) |  | 23.4 µM (inactive) | 19.3 µM (inactive) | 16.3 µM (inactive) | 19.1 µM (inactive) | 19.7 µM (inactive) | 17.4 µM (inactive) | 25.1 µM (inactive) | 16.3 µM (inactive) | 21.3 µM (inactive) |  |  | 
CCOC(=O)c1c(-c2ccccc2)c(C)cn1C | > 10 µM (inactive) |  | > 10 µM (inactive) | > 10 µM (inactive) | > 10 µM (inactive) | > 10 µM (inactive) | > 10 µM (inactive) |  |  | > 10 µM (inactive) | > 10 µM (inactive) | > 10 µM (inactive) | > 10 µM (inactive) | > 10 µM (inactive) | > 10 µM (inactive) | > 10 µM (inactive) |  |  |  | 
Cc1cc(N(CCC#N)CCC#N)ccc1/C=N\c1ccc(C(=O)NN2C(=O)/C(=C/c3ccc(N(CCC#N)CCC#N)cc3)N=C2c2cc([N+](=O)[O-])ccc2Cl)cc1 | 53.8 µM (inactive) | > 100 µM (inactive) | 65.6 µM (inactive) | > 100 µM (inactive) | > 100 µM (inactive) | 33 µM (inactive) | > 100 µM (inactive) | > 100 µM (inactive) |  |  | > 100 µM (inactive) | > 100 µM (inactive) | > 100 µM (inactive) | > 100 µM (inactive) | > 100 µM (inactive) | 42.5 µM (inactive) | > 100 µM (inactive) | > 100 µM (inactive) | > 100 µM (inactive) | 61.1 µM (inactive)
COC(=O)C1CC2(C)C=CC1N(C(=O)OCc1ccccc1)C2 (configuration not stated) | > 100 µM (inactive) | > 100 µM (inactive) | 69 µM (inactive) | 40.8 µM (inactive) | > 100 µM (inactive) | 49.7 µM (inactive) | 52.1 µM (inactive) | > 100 µM (inactive) | 52.7 µM (inactive) |  | 59.3 µM (inactive) | > 100 µM (inactive) | > 100 µM (inactive) | 27.7 µM (inactive) | > 100 µM (inactive) | 51.5 µM (inactive) | > 100 µM (inactive) | > 100 µM (inactive) | > 100 µM (inactive) | 24.2 µM (inactive)
COc1cccc2c1C(=O)c1c(O)c3c(c(O)c1C2=O)C[C@@](O)(/C(C)=N/NC(=O)c1ccc(Cl)c(Cl)c1)C[C@@H]3OC1CC(N)C(O)C(C)O1 (some centres not stated) | 0.0364 µM (active) | 0.0646 µM (active) | 0.0299 µM (active) | 0.0391 µM (active) | 0.462 µM (active) | 0.197 µM (active) | 0.205 µM (active) | 0.0249 µM (active) | 0.0693 µM (active) |  | 0.0592 µM (active) | 0.183 µM (active) | 0.718 µM (active) | 0.44 µM (active) | 0.0792 µM (active) | 0.11 µM (active) | 0.0676 µM (active) | 1.22 µM (inactive) | 0.0237 µM (active) | 0.0348 µM (active)
Nc1nc(NCC2(CO)CC2)cc(=O)[nH]1 | > 100 µM (inactive) | > 100 µM (inactive) | > 100 µM (inactive) | > 100 µM (inactive) | > 100 µM (inactive) | > 100 µM (inactive) | > 100 µM (inactive) | > 100 µM (inactive) | > 100 µM (inactive) |  | > 100 µM (inactive) |  | > 100 µM (inactive) | > 100 µM (inactive) | > 100 µM (inactive) | > 100 µM (inactive) | > 100 µM (inactive) | > 100 µM (inactive) | > 100 µM (inactive) | > 100 µM (inactive)
O=C1C=CC(O)C2C1CC13SSC4(CC5C(=O)C=CC(O)C5N4C1=O)C(=O)N23 (configuration not stated) | 0.0745 µM (active) | 0.155 µM (active) | < 0.01 µM (active) | < 0.0151 µM (active) | 1.37 µM (inactive) | 0.0358 µM (active) | 0.0885 µM (active) | 0.0579 µM (active) | 1.21 µM (inactive) |  | 0.106 µM (active) | 0.151 µM (active) | 0.796 µM (active) | 2.2 µM (inactive) | 1.36 µM (inactive) | 0.208 µM (active) | 0.302 µM (active) | 3.2 µM (inactive) | 0.33 µM (active) | < 0.0465 µM (active)
Cc1cnc2cc(Cl)ccc2c1SCC(=O)O | > 100 µM (inactive) | > 100 µM (inactive) | > 100 µM (inactive) | > 100 µM (inactive) | > 100 µM (inactive) | > 100 µM (inactive) | > 100 µM (inactive) | > 100 µM (inactive) |  | > 100 µM (inactive) | > 100 µM (inactive) |  | > 100 µM (inactive) |  | > 100 µM (inactive) | > 100 µM (inactive) | > 100 µM (inactive) | > 100 µM (inactive) | > 100 µM (inactive) | > 100 µM (inactive)
